Test results published in publication PMC6934184, “Selective DNA-PKcs inhibition extends the therapeutic index of localized radiotherapy and chemotherapy” (The Journal of Clinical Investigation, 2019).

Target: T1, ACVR1 (ALK2) R206H (Homo sapiens, UniProt Q04771, R206H)
T1 construct: purchased Thermo Fisher Scientific (Life Technologies) SelectScreen
Experiment: SelectScreen LanthaScreen
Type: binding
Settings: read-out: % displacement
Outline: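 NU5455 was profiled across the SelectScreen Broad panel of kinase activity and binding assays. Z'LYTE reactions such as CSF1R ran at apparent Km ATP, while the Adapta CAMK1 assay used ATP listed as 10. Values are given as percent.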

T1 sequence (Q04771 21-509 R206H): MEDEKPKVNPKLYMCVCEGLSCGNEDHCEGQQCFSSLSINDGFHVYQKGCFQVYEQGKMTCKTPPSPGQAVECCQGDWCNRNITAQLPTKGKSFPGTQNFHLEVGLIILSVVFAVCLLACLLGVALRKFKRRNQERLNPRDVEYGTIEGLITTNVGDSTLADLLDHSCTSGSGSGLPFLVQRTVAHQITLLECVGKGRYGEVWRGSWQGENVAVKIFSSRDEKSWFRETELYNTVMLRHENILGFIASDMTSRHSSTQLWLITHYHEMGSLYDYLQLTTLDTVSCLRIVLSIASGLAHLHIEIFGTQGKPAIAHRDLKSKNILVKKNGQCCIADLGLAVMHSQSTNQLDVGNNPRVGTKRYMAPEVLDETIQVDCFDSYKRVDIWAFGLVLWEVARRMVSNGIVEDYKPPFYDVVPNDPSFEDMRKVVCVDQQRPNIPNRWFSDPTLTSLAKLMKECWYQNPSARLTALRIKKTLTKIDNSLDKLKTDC

`CN(C(=O)CN1CCOCC1)c1ccc2sc3c(-c4cccc5c(=O)cc(N6CC7CCC(C6)O7)oc45)cccc3c2c1` [NU5455] showed an inhibition at 1 µM of 12.6%.
